Measurements published in PubChem BioAssay AID2060602 (Molecular Pharmacology Branch, DTP, NCI, 2025).

System: 648629-189-R-J1-PDC complex spheroids viability
Assay: Anticancer human tumor 648629-189-R-J1-PDC patient-derived bladder carcinoma cell line growth inhibition [CLK]
Conditions: for IC50: curve of first compound; for viability, T/C: stronger effect = lower value; active means viability on the fitted dose curve at most 10% of control; inactive means the rest
Method in brief: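 Patient-derived tumor cells grown as complex spheroids with HUVEC endothelial cells and mesenchymal stem cells, treated with drug combinations. Concentrations descend in half-log steps from near clinical Cmax, or from 10 microM if Cmax unknown.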
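Wherever viability, T/C is given: drug exposure lasted seven days before viability readout; 100% = DMSO vehicle control wells.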

COc1ccc([C@@H](O)c2cc(-c3ncnc4cc(N5CCOCC5)ccc34)c(F)cc2Cl)nn1 + CNC(=O)c1ccc(Nc2nc(OC3CCCC3)c3c(-c4ccc5nc(C)oc5c4)c[nH]c3n2)c(OC)c1
9.76 µM: IC50 (second compound 0.0316 µM)
< 0.0316 µM: IC50 (second compound 0.316 µM) | IC50 (second compound 1 µM) | IC50 (second compound 3.16 µM) | IC50 (second compound 10 µM)
7.74 µM: IC50 (second compound 0.1 µM)
inactive: viability, T/C (second compound 0.0316 µM, first compound 0.0316 µM) 105% | viability, T/C (second compound 0.0316 µM, first compound 0.1 µM) 93% | viability, T/C (second compound 0.0316 µM, first compound 0.316 µM) 97% | viability, T/C (second compound 0.0316 µM, first compound 1 µM) 85.3% | viability, T/C (second compound 0.0316 µM, first compound 3.16 µM) 67.4% | viability, T/C (second compound 0.0316 µM, first compound 10 µM) 49.7% | viability, T/C (second compound 0.1 µM, first compound 0.0316 µM) 90.6% | viability, T/C (second compound 0.1 µM, first compound 0.1 µM) 89.3% | viability, T/C (second compound 0.1 µM, first compound 0.316 µM) 83.7% | viability, T/C (second compound 0.1 µM, first compound 1 µM) 82% | viability, T/C (second compound 0.1 µM, first compound 3.16 µM) 60.5% | viability, T/C (second compound 0.1 µM, first compound 10 µM) 47% | viability, T/C (second compound 0.316 µM, first compound 0.0316 µM) 30.8% | viability, T/C (second compound 0.316 µM, first compound 0.1 µM) 27% | viability, T/C (second compound 0.316 µM, first compound 0.316 µM) 26.8% | viability, T/C (second compound 0.316 µM, first compound 1 µM) 24.6% | viability, T/C (second compound 0.316 µM, first compound 3.16 µM) 22.4% | viability, T/C (second compound 0.316 µM, first compound 10 µM) 24.2% | viability, T/C (second compound 1 µM, first compound 0.0316 µM) 20.2% | viability, T/C (second compound 1 µM, first compound 0.1 µM) 22.2% | viability, T/C (second compound 1 µM, first compound 0.316 µM) 20.5% | viability, T/C (second compound 1 µM, first compound 1 µM) 17.5% | viability, T/C (second compound 1 µM, first compound 3.16 µM) 22.4% | viability, T/C (second compound 1 µM, first compound 10 µM) 16% | viability, T/C (second compound 3.16 µM, first compound 0.0316 µM) 21.3% | viability, T/C (second compound 3.16 µM, first compound 0.1 µM) 20.5% | viability, T/C (second compound 3.16 µM, first compound 0.316 µM) 20.4% | viability, T/C (second compound 3.16 µM, first compound 1 µM) 15% | viability, T/C (second compound 3.16 µM, first compound 3.16 µM) 19.2% | viability, T/C (second compound 3.16 µM, first compound 10 µM) 18.1% | viability, T/C (second compound 10 µM, first compound 0.0316 µM) 19.6% | viability, T/C (second compound 10 µM, first compound 0.1 µM) 17.1% | viability, T/C (second compound 10 µM, first compound 0.316 µM) 21.7% | viability, T/C (second compound 10 µM, first compound 1 µM) 20.1% | viability, T/C (second compound 10 µM, first compound 3.16 µM) 19.1% | viability, T/C (second compound 10 µM, first compound 10 µM) 15.7%
